From US20100003289A1, “Controlled Release Complex Formulation For Oral Administration of Medicine For Diabetes and Method For The Preparation Thereof” (Hanmi Pharm, Co., Ltd., priority 2004, published 2010)

Test: Stability of glimepiride in solution as function of pH, Test Example 5
Format: physicochemical
Design: Rate constant (K): unit not given beside the values
Conditions: for Log K / Rate constant (K) / T50% (time taken for 50% disintegration of the drug, 0.693/K): room temperature
Method: In order to examine the stability of glimepiride in a solution as function of pH changes, only the glimepiride rapid-release portion of the formulation of Example 13 was separated, and dissolved in each of the solutions listed in Table 17. Each of the resulting solutions was kept at room temperature and the glimepiride contents thereof were measured at predetermined times.

[1] = pH 1.2, 1st solution of disintegrating-test in Korea pharmacopoeia
[2] = pH 4.0, British pharmacopoeia buffer solution (1998)
[3] = pH 6.8, 2nd solution of disintegrating-test in Korea pharmacopoeia
[4] = pH 7.8, phosphate buffer solution (Amaryl release solution)

## CCC1=C(C)CN(C(=O)NCCc2ccc(S(=O)(=O)NC(=O)N[C@H]3CC[C@H](C)CC3)cc2)C1=O [glimepiride]
[1]
  Log K: 0.186
  Rate constant (K): 1.534
  T50% (time taken for 50% disintegration of the drug, 0.693/K): 0.45
[2]
  Log K: −0.472
  Rate constant (K): 0.337
  T50% (time taken for 50% disintegration of the drug, 0.693/K): 2.06
[3]
  Log K: −0.900
  Rate constant (K): 0.126
  T50% (time taken for 50% disintegration of the drug, 0.693/K): 5.50
[4]
  Log K: −1.187
  Rate constant (K): 0.065
  T50% (time taken for 50% disintegration of the drug, 0.693/K): 10.66
pH 10.0, Meglumin 1% solution
  Log K: −2.721
  Rate constant (K): 0.002
  T50% (time taken for 50% disintegration of the drug, 0.693/K): 346.50
Solution containing meglumin, judged by lowest K value, FIG. 9
  stability of glimepiride as function of the solution pH: most stable
